Experimental findings from patent US20250129069A1, “TRIAZOLO WRN INHIBITORS” (Nimbus Wadjet, Inc., priority 2023, published 2025) are described below.

Like-named read-outs stand apart in the source and are kept apart here.

The test system of assay [1] is p21 induction in HCT 116 cells. Briefly: p21 induction in cells (In-Cell Western, p21/GAPDH ratio). Format: cell-based. Particulars: 24 h compound incubation, read-out: p21_EC50. In a few lines:
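EC50 values come from nonlinear fits of percent activation, defined by the 800/700 nm p21-to-GAPDH ratio scaled between DMSO (low) and internal WRN inhibitor (high) controls. In-Cell Western read after 24 h compound exposure of HCT 116 cells at 37° C. Duplicate 11-point series, 2-fold steps, usually starting at 10 μM.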

In assay [2] the target is human Werner helicase (WRN, amino acids 517-1235 with L1074F point mutation) (Homo sapiens (Human), UniProt Q14191, L1074F). Briefly: WRN (BV08) ADP-Glo assay. Format: biochemical. Particulars: human WRN (aa 517-1235, L1074F), read-out: ADP-Glo_hWRN_IC50. In a few lines:
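ADP-Glo luminescence read after 60 min, 25 °C reaction of 0.15 nM WRN (517-1235, L1074F, Sf9-expressed, tag removed) with 0.1 nM DNA duplex and 5 μM ATP, following 15 min compound preincubation; 20 mM Bicine pH 7.5, 1% DMSO. IC50 from 3- or 4-parameter fit of % inhibition.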
In general terms: ADP-Glo turns the ADP formed in a reaction into a luminescent signal.

human Werner helicase (WRN, amino acids 517-1235 with L1074F point mutation), sequence (Q14191 other isoform, or with tags, fused parts or gaps L1074F (already in the parent)): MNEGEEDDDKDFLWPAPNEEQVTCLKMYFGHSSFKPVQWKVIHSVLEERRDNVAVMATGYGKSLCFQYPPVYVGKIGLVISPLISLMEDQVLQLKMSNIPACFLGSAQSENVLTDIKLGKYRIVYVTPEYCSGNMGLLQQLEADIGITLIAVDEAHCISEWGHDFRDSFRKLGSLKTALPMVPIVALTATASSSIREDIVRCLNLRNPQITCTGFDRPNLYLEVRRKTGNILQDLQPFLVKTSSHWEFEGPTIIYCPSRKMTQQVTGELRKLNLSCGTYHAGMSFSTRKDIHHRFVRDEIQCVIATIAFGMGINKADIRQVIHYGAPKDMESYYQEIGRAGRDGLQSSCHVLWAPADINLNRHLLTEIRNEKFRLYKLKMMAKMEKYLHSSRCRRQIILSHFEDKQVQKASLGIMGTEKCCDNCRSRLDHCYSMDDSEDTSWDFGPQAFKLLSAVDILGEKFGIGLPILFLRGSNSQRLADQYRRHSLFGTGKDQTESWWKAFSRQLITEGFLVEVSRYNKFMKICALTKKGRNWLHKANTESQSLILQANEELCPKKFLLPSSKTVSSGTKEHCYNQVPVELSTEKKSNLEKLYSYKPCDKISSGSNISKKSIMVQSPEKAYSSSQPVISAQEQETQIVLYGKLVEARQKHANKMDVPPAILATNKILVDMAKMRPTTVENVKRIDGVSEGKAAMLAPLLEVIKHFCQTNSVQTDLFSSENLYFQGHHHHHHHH

With `CCc1c(N2CCN(C(=O)c3c(O)ccc(C)c3OC)CC2)c(=O)c2nn(-c3ccnc(OC)c3)nc2n1CC(=O)NC12CC(C3CC3)(C1)C2` [Compound I-110, N-{3-cyclopropylbicyclo[1.1.1]pentan-1-yl}-2-{5-ethyl-6-[4-(6-hydroxy-2-methoxy-3-methylbenzoyl)piperazin-1-yl]-2-(2-methoxypyridin-4-yl)-7-oxo-2H,4H,7H-[1,2,3]triazolo[4,5-b]pyridin-4-yl}acetamide], the EC50 in assay [1] (Homo sapiens) was in the range of 500 to 2000 nM. Also, the IC50 in assay [2] lay in the range of 5 to 50 nM.
Taken in the same sequence, the figures for `CCc1c(N2CCN(C(=O)c3c(Oc4cnn(C)c4)ncc(C)c3O)CC2)c(=O)c2nn(-c3ccnc(OC)c3)nc2n1CC(=O)NC12CC(C(C)C)(C1)C2` [Compound I-63, 2-[5-ethyl-6-(4-{4-hydroxy-5-methyl-2-[(1-methyl-1H-pyrazol-4-yl)oxy]pyridine-3-carbonyl}piperazin-1-yl)-2-(2-methoxypyridin-4-yl)-7-oxo-2H,4H,7H-[1,2,3]triazolo[4,5-b]pyridin-4-yl]-N-[3-(propan-2-yl)bicyclo[1.1.1]pentan-1-yl]acetamide] were no more than 500 nM and 5 to 50 nM.
Turning to `CCc1c(N2CCN(C(=O)c3c(OC)ncc(C)c3O)CC2)c(=O)c2nn(-c3ccnc(OC)c3)nc2n1CC(=O)NC12CC(C3CC3)(C1)C2` [Compound I-129, N-{3-cyclopropylbicyclo[1.1.1]pentan-1-yl}-2-{5-ethyl-6-[4-(4-hydroxy-2-methoxy-5-methylpyridine-3-carbonyl)piperazin-1-yl]-2-(2-methoxypyridin-4-yl)-7-oxo-2H,4H,7H-[1,2,3]triazolo[4,5-b]pyridin-4-yl}acetamide], the EC50 in assay [1] (Homo sapiens) is no more than 500 nM. Besides, the IC50 in assay [2] fell in the range of 5 to 50 nM.
On the same counts, the results for `CCc1c(N2CCN(C(=O)c3c(OC)ncc(C)c3O)CC2)c(=O)c2nn(-c3ccnc(OC)c3)nc2n1CC(=O)NC1CC2(CC(C)C2)C1` (centres unmarked) [Compound I-103, 2-{5-ethyl-6-[4-(4-hydroxy-2-methoxy-5-methylpyridine-3-carbonyl)piperazin-1-yl]-2-(2-methoxypyridin-4-yl)-7-oxo-2H,4H,7H-[1,2,3]triazolo[4,5-b]pyridin-4-yl}-N-{6-methylspiro[3.3]heptan-2-yl}acetamide] are 2000 to 5000 nM and 5 to 50 nM.
Taken in the same sequence, the figures for `CCc1c(N2CCN(C(=O)c3c(O)ccc4ncoc34)CC2)c(=O)c2nn(-c3ccnc(OC)c3)nc2n1CC(=O)NC12CC(C(F)(F)F)(C1)C2` [Compound I-150, 2-{5-ethyl-6-[4-(6-hydroxy-1,3-benzoxazole-7-carbonyl)piperazin-1-yl]-2-(2-methoxypyridin-4-yl)-7-oxo-2H,4H,7H-[1,2,3]triazolo[4,5-b]pyridin-4-yl}-N-[3-(trifluoromethyl)bicyclo[1.1.1]pentan-1-yl]acetamide] were no more than 500 nM and 5 to 50 nM.
Taken in the same sequence, the figures for `CCc1c(N2CCN(C(=O)c3c(OC)ncc(C4CC4)c3O)CC2)c(=O)c2nn(-c3ccnc(OC)c3)nc2n1CC(=O)NC12CC(C(C)C)(C1)C2` [Compound I-65, 2-{6-[4-(5-cyclopropyl-4-hydroxy-2-methoxypyridine-3-carbonyl)piperazin-1-yl]-5-ethyl-2-(2-methoxypyridin-4-yl)-7-oxo-2H,4H,7H-[1,2,3]triazolo[4,5-b]pyridin-4-yl}-N-[3-(propan-2-yl)bicyclo[1.1.1]pentan-1-yl]acetamide] were 500 to 2000 nM and 5 to 50 nM.
Consider `CCc1c(N2CCN(C(=O)c3c(OC)ncc(C)c3O)CC2)c(=O)c2nn(-c3ccnc(OC)c3)nc2n1CC(=O)NC1CC2(CCC(F)(F)CC2)C1` [Compound I-106, N-{7,7-difluorospiro[3.5]nonan-2-yl}-2-{5-ethyl-6-[4-(4-hydroxy-2-methoxy-5-methylpyridine-3-carbonyl)piperazin-1-yl]-2-(2-methoxypyridin-4-yl)-7-oxo-2H,4H,7H-[1,2,3]triazolo[4,5-b]pyridin-4-yl}acetamide], for which the EC50 in assay [1] (Homo sapiens) was greater than 5000 nM. In addition, the IC50 in assay [2] lay within 5 to 50 nM.
`CCc1c(N2CCN(C(=O)c3ncnc(C)c3O)[C@H]3CC[C@@H]32)c(=O)c2nn(-c3ccnc(OC)c3)nc2n1CC(=O)NC12CC(C3CC3)(C1)C2` [Compound I-30, N-{3-cyclopropylbicyclo[1.1.1]pentan-1-yl}-2-{5-ethyl-6-[(1S,6S)-5-(5-hydroxy-6-methylpyrimidine-4-carbonyl)-2,5-diazabicyclo[4.2.0]octan-2-yl]-2-(2-methoxypyridin-4-yl)-7-oxo-2H,4H,7H-[1,2,3]triazolo[4,5-b]pyridin-4-yl}acetamide]: the EC50 in assay [1] was no more than 500 nM. Further, the IC50 in assay [2] fell in the range of 5 to 50 nM.
On to `CCc1c(N2CCN(C(=O)c3c(O)ccnc3OC)CC2)c(=O)c2nn(-c3ccnc(OC)c3)nc2n1CC(=O)NC12CC(C(F)(F)F)(C1)C2` [Compound I-143, 2-{5-ethyl-6-[4-(4-hydroxy-2-methoxypyridine-3-carbonyl)piperazin-1-yl]-2-(2-methoxypyridin-4-yl)-7-oxo-2H,4H,7H-[1,2,3]triazolo[4,5-b]pyridin-4-yl}-N-[3-(trifluoromethyl)bicyclo[1.1.1]pentan-1-yl]acetamide], for which, in assay [1] (Homo sapiens), the EC50 lay within 500 to 2000 nM. Further, the IC50 in assay [2] lay in the range of 5 to 50 nM.
`CCc1c(N2CCN(C(=O)c3ncnc(C)c3O)CC2)c(=O)c2nn(-c3ccnc(OC)c3)nc2n1CC(=O)NC12CC(C3CCC3)(C1)C2` [Compound I-140, N-{3-cyclobutylbicyclo[1.1.1]pentan-1-yl}-2-{5-ethyl-6-[4-(5-hydroxy-6-methylpyrimidine-4-carbonyl)piperazin-1-yl]-2-(2-methoxypyridin-4-yl)-7-oxo-2H,4H,7H-[1,2,3]triazolo[4,5-b]pyridin-4-yl}acetamide]: the EC50 in assay [1] (Homo sapiens) is no more than 500 nM. Besides, in assay [2], the IC50 lay within 5 to 50 nM.
On the same counts, the results for `CCc1c(N2CCN(C(=O)c3ncnc(C)c3O)CC2)c(=O)c2nn(-c3ccncc3)nc2n1CC(=O)Nc1ccc(C(F)(F)F)cc1Cl` [Compound I-147, N-[2-chloro-4-(trifluoromethyl)phenyl]-2-{5-ethyl-6-[4-(5-hydroxy-6-methylpyrimidine-4-carbonyl)piperazin-1-yl]-7-oxo-2-(pyridin-4-yl)-2H,4H,7H-[1,2,3]triazolo[4,5-b]pyridin-4-yl}acetamide] are no more than 500 nM and no more than 5 nM.
On the same counts, the results for `CCc1c(C23CCN(C(=O)c4ncnc(C)c4O)CC2C3)c(=O)c2nn(-c3ccnc(OC)c3)nc2n1CC(=O)NC12CC(C(C)C)(C1)C2` [Compound I-42, rel-2-{5-ethyl-6-[(1R,6S)-3-(5-hydroxy-6-methylpyrimidine-4-carbonyl)-3-azabicyclo[4.1.0]heptan-6-yl]-2-(2-methoxypyridin-4-yl)-7-oxo-2H,4H,7H-[1,2,3]triazolo[4,5-b]pyridin-4-yl}-N-[3-(propan-2-yl)bicyclo[1.1.1]pentan-1-yl]acetamide] are 500 to 2000 nM and 5 to 50 nM.
With `CCc1c(N2CCN(C(=O)c3ncc4c(c3O)OCC4)CC2)c(=O)c2nn(C3=CCOCC3)nc2n1CC(=O)Nc1ccc(C(F)(F)F)cc1Cl` [Compound I-109, N-[2-chloro-4-(trifluoromethyl)phenyl]-2-[2-(3,6-dihydro-2H-pyran-4-yl)-5-ethyl-6-(4-{7-hydroxy-2H,3H-furo[3,2-c]pyridine-6-carbonyl}piperazin-1-yl)-7-oxo-2H,4H,7H-[1,2,3]triazolo[4,5-b]pyridin-4-yl]acetamide], the EC50 in assay [1] (Homo sapiens) is no more than 500 nM. The IC50 in assay [2] is no more than 5 nM.
Consider `CCc1c(N2CCN(C(=O)c3cnn(C)c3)[C@H]3CC[C@@H]32)c(=O)c2nn(C3=CCOCC3)nc2n1CC(=O)NC12CC(C(C)C)(C1)C2` [Compound I-206, 2-[2-(3,6-dihydro-2H-pyran-4-yl)-5-ethyl-6-[(1S,6S)-5-(1-methyl-1H-pyrazole-4-carbonyl)-2,5-diazabicyclo[4.2.0]octan-2-yl]-7-oxo-2H,4H,7H-[1,2,3]triazolo[4,5-b]pyridin-4-yl]-N-[3-(propan-2-yl)bicyclo[1.1.1]pentan-1-yl]acetamide], for which the EC50 in assay [1] (Homo sapiens) was in the range of 500 to 2000 nM. Moreover, the IC50 in assay [2] lay in the range of 5 to 50 nM.
Taken in the same sequence, the figures for `CCc1c(N2CCN(C(=O)c3ncnc(C)c3O)[C@H]3CC[C@@H]32)c(=O)c2nn(-c3ccnc(OC)c3)nc2n1CC(=O)NC1CC2(C1)CC(C)(C)C2` [Compound I-72, N-{6,6-dimethylspiro[3.3]heptan-2-yl}-2-{5-ethyl-6-[(1S,6S)-5-(5-hydroxy-6-methylpyrimidine-4-carbonyl)-2,5-diazabicyclo[4.2.0]octan-2-yl]-2-(2-methoxypyridin-4-yl)-7-oxo-2H,4H,7H-[1,2,3]triazolo[4,5-b]pyridin-4-yl}acetamide] were 2000 to 5000 nM and 5 to 50 nM.
On to `CCc1c(N2CCN(C(=O)c3cccc4oc(=O)[nH]c34)[C@H]3CC[C@@H]32)c(=O)c2nn(C3=CCOCC3)nc2n1CC(=O)NC12CC(C(C)C)(C1)C2` [Compound I-199, 2-[2-(3,6-dihydro-2H-pyran-4-yl)-5-ethyl-7-oxo-6-[(1S,6S)-5-(2-oxo-2,3-dihydro-1,3-benzoxazole-4-carbonyl)-2,5-diazabicyclo[4.2.0]octan-2-yl]-2H,4H,7H-[1,2,3]triazolo[4,5-b]pyridin-4-yl]-N-[3-(propan-2-yl)bicyclo[1.1.1]pentan-1-yl]acetamide], for which the EC50 in assay [1] (Homo sapiens) is no more than 500 nM. In assay [2], the IC50 is 5 to 50 nM.
